Read-outs that look alike come from different tables or passages of the source. Where a SMILES comes first, the peptide text is derived from it. Bridges are numbered along the chain shown (N, C = ends). Where no end group is shown, it is not given here. [ ]: non-standard residue; d: D form. S5 = C=CCCC[C@](C)(N)C(=O)O
Key:
RXFP3 [1] = biological target: T1, RXFP3 (Homo sapiens, UniProt Q9NSD7); assay: Competition binding assay with Eu-labelled R3 B1-22R on CHO-K1 cells stably expressing RXFP3; details: read-out: pKi [logM] (converted)
T1 construct: expressed in transfected cells; host or cells: CHO-K1
T1 sequence (Q9NSD7 1-469): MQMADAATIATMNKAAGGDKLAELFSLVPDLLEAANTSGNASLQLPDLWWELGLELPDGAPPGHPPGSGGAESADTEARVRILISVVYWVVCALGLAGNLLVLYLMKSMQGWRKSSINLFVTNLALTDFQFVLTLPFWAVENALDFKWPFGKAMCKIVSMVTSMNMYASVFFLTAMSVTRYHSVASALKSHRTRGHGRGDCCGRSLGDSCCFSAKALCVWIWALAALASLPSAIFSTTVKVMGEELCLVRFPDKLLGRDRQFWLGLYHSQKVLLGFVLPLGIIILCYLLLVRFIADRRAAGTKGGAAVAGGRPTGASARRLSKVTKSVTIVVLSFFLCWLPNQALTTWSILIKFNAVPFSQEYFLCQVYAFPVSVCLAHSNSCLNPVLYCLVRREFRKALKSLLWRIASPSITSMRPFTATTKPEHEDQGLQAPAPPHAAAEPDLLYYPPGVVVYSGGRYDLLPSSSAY
Protocol: Determination of binding affinity in this study was carried out as previously described. Briefly, CHO-K1 cells stably expressing RXFP3 [38] were treated with 5 nM Eu-labelled R3 B1-22R with increasing concentrations of novel analogues. Fluorescence measurement were recorded with 340 nm excitation and 614 nm emission wavelengths. Assays were conducted in triplicates and independently repeated at least three times. […] Statistical analyses were conducted using 1-way ANOVA with uncorrected Fisher’s least square difference in GraphPad Prism 8.0.
(§1) To determine their binding affinity, the ability of increasing concentration of analogues to compete with europium labelled R3 B1-22R were measured using CHO cells stably expressing RXFP3 [37]. Their potency at RXFP3 was measured by inhibition of cAMP accumulation induced by forskolin, as RXFP3 couples to an inhibitory G-protein.

RXFP3 [2] = biological target: T1, RXFP3; assay: cAMP activity assay: inhibition of forskolin-induced cAMP accumulation in CHO-K1 cells stably expressing RXFP3; type: cell-based; details: for EC50: CHO-K1 cells stably expressing RXFP3, inhibition of cAMP accumulation stimulated by 5 μM forskolin, mean ± SEM, triplicates, three independent experiments; for maximum cAMP accumulation inhibition: at the highest concentration tested, CHO-K1 cells expressing RXFP3, forskolin-stimulated (Figure 3)
Protocol: CHO-KI cells stably expressing RXFP3 were used to study the ability of the novel analogues to inhibit forskolin-induced cAMP accumulation. Assays were conducted as previously described. Briefly, 5 μM forskolin was used to stimulate the cells and increasing concentrations of the novel analogues were added to measure the dose-dependent reduction in the cAMP response via activation of the Gi/o-coupled RXFP3. Each analogue was tested in triplicates and each experiment was independently repeated three times. Data are presented as mean ± SEM and were analysed using GraphPad Prism 8.0. Statistical analyses were conducted using 1-way ANOVA and uncorrected Fisher’s least square difference.
as §1

Ki (RXFP3 [1]; SEM) | EC50 (RXFP3 [2]; SEM) | EC50 (RXFP3 [2]) | maximum cAMP accumulation inhibition (RXFP3 [2]) | Ki (RXFP3 [1]) | Compound
0.0417 µM | – | – | – | – | CC[C@H](C)[C@@H]1NC(=O)[C@H](Cc2ccccc2)NC(=O)[C@@](C)(NC(=O)[C@H](CCCNC(=N)N)NC(=O)CNC(=O)[C@H](CO)NC(C)=O)CCCC=CCCC[C@@](C)(C(=O)N[C@H](C(=O)N[C@H](C(=O)N[C@@H](Cc2ccccc2)C(=O)N[C@H](C(=O)N[C@@H](CO)C(=O)NCC(=O)NCC(=O)N[C@@H](CO)C(=O)N[C@@H](CCCNC(=N)N)C(=O)N[C@@H](Cc2c[nH]c3ccccc23)C(=O)O)[C@@H](C)O)[C@@H](C)CC)C(C)C)NC(=O)[C@H](CCCNC(=N)N)NC1=O [Ac-R3B10-27 [13/17 HC], reference compound] (Ac-SGR[S5]FIR[S5]VIFTSGGSRW-OH; staple 4-8)
0.562 µM | 0.0676 µM | – | – | – | CC[C@H](C)[C@H](NC(=O)[C@H](Cc1ccccc1)NC(=O)C(C)(C)NC(=O)[C@H](CCCNC(=N)N)NC(=O)CNC(=O)[C@H](CO)NC(C)=O)C(=O)N[C@@H](CCCNC(=N)N)C(=O)NC(C)(C)C(=O)N[C@H](C(=O)N[C@H](C(=O)N[C@@H](Cc1ccccc1)C(=O)N[C@H](C(=O)N[C@@H](CO)C(=O)NCC(=O)NCC(=O)N[C@@H](CO)C(=O)N[C@@H](CCCNC(=N)N)C(=O)N[C@@H](Cc1c[nH]c2ccccc12)C(=O)O)[C@@H](C)O)[C@@H](C)CC)C(C)C [Analogue 1] (HELM PEPTIDE1{[ac].S.G.R.[Aib].F.I.R.[Aib].V.I.F.T.S.G.G.S.R.W}$$$$V2.0)
1.48 µM | 0.55 µM | – | – | – | CC[C@H](C)[C@H](NC(=O)[C@@H](NC(=O)C(C)(C)NC(=O)[C@H](CCCNC(=N)N)NC(=O)[C@@H](NC(=O)C(C)(C)NC(=O)C(C)(C)NC(=O)[C@H](CCCNC(=N)N)NC(=O)CNC(=O)[C@H](CO)NC(C)=O)[C@@H](C)CC)C(C)C)C(=O)N[C@@H](Cc1ccccc1)C(=O)N[C@H](C(=O)N[C@@H](CO)C(=O)NCC(=O)NCC(=O)N[C@@H](CO)C(=O)N[C@@H](CCCNC(=N)N)C(=O)N[C@@H](Cc1c[nH]c2ccccc12)C(=O)O)[C@@H](C)O [Analogue 2] (HELM PEPTIDE1{[ac].S.G.R.[Aib].[Aib].I.R.[Aib].V.I.F.T.S.G.G.S.R.W}$$$$V2.0)
– | 0.0912 µM | – | – | – | CC[C@H](C)[C@H](NC(=O)[C@H](Cc1ccccc1)NC(=O)C(C)(C)NC(=O)[C@H](CCCNC(=N)N)NC(=O)CNC(=O)[C@@H](N)CO)C(=O)N[C@@H](CCCNC(=N)N)C(=O)NC(C)(C)C(=O)NC(C)(C)C(=O)N[C@H](C(=O)N[C@@H](Cc1ccccc1)C(=O)N[C@H](C(=O)N[C@@H](CO)C(=O)NCC(=O)NCC(=O)N[C@@H](CO)C(=O)N[C@@H](CCCNC(=N)N)C(=O)N[C@@H](Cc1c[nH]c2ccccc12)C(=O)O)[C@@H](C)O)[C@@H](C)CC [Analogue 3] (HELM PEPTIDE1{S.G.R.[Aib].F.I.R.[Aib].[Aib].I.F.T.S.G.G.S.R.W}$$$$V2.0)
0.759 µM | 0.0331 µM | – | – | – | CC[C@H](C)[C@H](NC(=O)[C@H](Cc1ccccc1)NC(=O)C(C)(C)NC(=O)[C@H](CCCNC(=N)N)NC(=O)CNC(=O)[C@H](CO)NC(C)=O)C(=O)N[C@@H](CCCNC(=N)N)C(=O)NC(C)(C)C(=O)NC(C)(C)C(=O)N[C@H](C(=O)N[C@@H](Cc1ccccc1)C(=O)N[C@H](C(=O)N[C@@H](CO)C(=O)NCC(=O)NCC(=O)N[C@@H](CO)C(=O)N[C@@H](CCCNC(=N)N)C(=O)N[C@@H](Cc1c[nH]c2ccccc12)C(=O)O)[C@@H](C)O)[C@@H](C)CC [Analogue 4] (HELM PEPTIDE1{[ac].S.G.R.[Aib].F.I.R.[Aib].[Aib].I.F.T.S.G.G.S.R.W}$$$$V2.0)
– | – | 1.02 µM | – | – | CC[C@H](C)[C@H](NC(=O)[C@H](Cc1ccccc1)NC(=O)C(C)(C)NC(=O)[C@H](CCCNC(=N)N)NC(=O)CNC(=O)[C@@H](N)CO)C(=O)N[C@@H](CCCNC(=N)N)C(=O)NC(C)(C)C(=O)N[C@H](C(=O)N[C@H](C(=O)N[C@@H](Cc1ccccc1)C(=O)NC(C)(C)C(=O)N[C@@H](CO)C(=O)NCC(=O)NCC(=O)N[C@@H](CO)C(=O)N[C@@H](CCCNC(=N)N)C(=O)N[C@@H](Cc1c[nH]c2ccccc12)C(=O)O)[C@@H](C)CC)C(C)C [Analogue 5] (HELM PEPTIDE1{S.G.R.[Aib].F.I.R.[Aib].V.I.F.[Aib].S.G.G.S.R.W}$$$$V2.0)
1.7 µM | 1.86 µM | – | – | – | CC[C@H](C)[C@H](NC(=O)[C@H](Cc1ccccc1)NC(=O)C(C)(C)NC(=O)[C@H](CCCNC(=N)N)NC(=O)CNC(=O)[C@H](CO)NC(C)=O)C(=O)N[C@@H](CCCNC(=N)N)C(=O)NC(C)(C)C(=O)N[C@H](C(=O)N[C@H](C(=O)N[C@@H](Cc1ccccc1)C(=O)NC(C)(C)C(=O)N[C@@H](CO)C(=O)NCC(=O)NCC(=O)N[C@@H](CO)C(=O)N[C@@H](CCCNC(=N)N)C(=O)N[C@@H](Cc1c[nH]c2ccccc12)C(=O)O)[C@@H](C)CC)C(C)C [Analogue 6] (HELM PEPTIDE1{[ac].S.G.R.[Aib].F.I.R.[Aib].V.I.F.[Aib].S.G.G.S.R.W}$$$$V2.0)
1.12 µM | – | > 10 µM | ~ 50% | – | CC[C@H](C)[C@H](NC(=O)[C@H](Cc1ccccc1)NC(=O)C(C)(C)NC(=O)[C@H](CCCNC(=N)N)NC(=O)CNC(=O)[C@@H](N)CO)C(=O)N[C@@H](CCCNC(=N)N)C(=O)NC(C)(C)C(=O)N[C@H](C(=O)N[C@H](C(=O)N[C@@H](Cc1ccccc1)C(=O)N[C@H](C(=O)NC(C)(C)C(=O)NCC(=O)NCC(=O)N[C@@H](CO)C(=O)N[C@@H](CCCNC(=N)N)C(=O)N[C@@H](Cc1c[nH]c2ccccc12)C(=O)O)[C@@H](C)O)[C@@H](C)CC)C(C)C [Analogue 7] (HELM PEPTIDE1{S.G.R.[Aib].F.I.R.[Aib].V.I.F.T.[Aib].G.G.S.R.W}$$$$V2.0)
0.955 µM | – | > 10 µM | ~ 50% | – | CC[C@H](C)[C@H](NC(=O)[C@H](Cc1ccccc1)NC(=O)C(C)(C)NC(=O)[C@H](CCCNC(=N)N)NC(=O)CNC(=O)[C@H](CO)NC(C)=O)C(=O)N[C@@H](CCCNC(=N)N)C(=O)NC(C)(C)C(=O)N[C@H](C(=O)N[C@H](C(=O)N[C@@H](Cc1ccccc1)C(=O)N[C@H](C(=O)NC(C)(C)C(=O)NCC(=O)NCC(=O)N[C@@H](CO)C(=O)N[C@@H](CCCNC(=N)N)C(=O)N[C@@H](Cc1c[nH]c2ccccc12)C(=O)O)[C@@H](C)O)[C@@H](C)CC)C(C)C [Analogue 8] (HELM PEPTIDE1{[ac].S.G.R.[Aib].F.I.R.[Aib].V.I.F.T.[Aib].G.G.S.R.W}$$$$V2.0)
2 µM | 1.78 µM | – | – | – | CC[C@H](C)[C@H](NC(=O)[C@H](Cc1ccccc1)NC(=O)C(C)(C)NC(=O)[C@H](CCCNC(=N)N)NC(=O)CNC(=O)[C@@H](N)CO)C(=O)N[C@@H](CCCNC(=N)N)C(=O)NC(C)(C)C(=O)NC(C)(C)C(=O)N[C@H](C(=O)N[C@@H](Cc1ccccc1)C(=O)NC(C)(C)C(=O)N[C@@H](CO)C(=O)NCC(=O)NCC(=O)N[C@@H](CO)C(=O)N[C@@H](CCCNC(=N)N)C(=O)N[C@@H](Cc1c[nH]c2ccccc12)C(=O)O)[C@@H](C)CC [Analogue 9] (HELM PEPTIDE1{S.G.R.[Aib].F.I.R.[Aib].[Aib].I.F.[Aib].S.G.G.S.R.W}$$$$V2.0)
– | 3.24 µM | – | – | > 10 µM | CC[C@H](C)[C@H](NC(=O)[C@H](Cc1ccccc1)NC(=O)C(C)(C)NC(=O)[C@H](CCCNC(=N)N)NC(=O)CNC(=O)[C@H](CO)NC(C)=O)C(=O)N[C@@H](CCCNC(=N)N)C(=O)NC(C)(C)C(=O)NC(C)(C)C(=O)N[C@H](C(=O)N[C@@H](Cc1ccccc1)C(=O)NC(C)(C)C(=O)N[C@@H](CO)C(=O)NCC(=O)NCC(=O)N[C@@H](CO)C(=O)N[C@@H](CCCNC(=N)N)C(=O)N[C@@H](Cc1c[nH]c2ccccc12)C(=O)O)[C@@H](C)CC [Analogue 10] (HELM PEPTIDE1{[ac].S.G.R.[Aib].F.I.R.[Aib].[Aib].I.F.[Aib].S.G.G.S.R.W}$$$$V2.0)
1.23 µM | – | – | – | – | RAAPYGVRLSGREFIRAVIFTSGGSRW [H3 B-chain, reference compound]
